Biological target: T1, Recombinant human DGAT2 protein (Homo sapiens, UniProt Q96PD7)
T1 construct: FLAG (DYKDDDDK); (N); made in house; host or cells: Sf-21 insect cells (BacPAK baculovirus system); used as a membrane preparation
T1 sequence (Q96PD7 1-388): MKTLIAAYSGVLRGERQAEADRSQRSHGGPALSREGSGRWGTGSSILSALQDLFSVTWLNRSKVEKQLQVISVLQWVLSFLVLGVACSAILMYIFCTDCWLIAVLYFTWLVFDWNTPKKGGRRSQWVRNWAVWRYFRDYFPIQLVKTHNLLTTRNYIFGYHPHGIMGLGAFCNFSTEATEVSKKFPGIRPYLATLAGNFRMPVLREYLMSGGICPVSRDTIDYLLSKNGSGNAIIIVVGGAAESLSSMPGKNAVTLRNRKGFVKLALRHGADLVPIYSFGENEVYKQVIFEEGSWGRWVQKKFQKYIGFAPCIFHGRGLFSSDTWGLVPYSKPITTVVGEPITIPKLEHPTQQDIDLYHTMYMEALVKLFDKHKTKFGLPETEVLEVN
Experiment: Measurement of inhibitory effect against DGAT2 enzyme activity (SPA, Phospholipid FlashPlate, [14C]-TG production)
Assay type: biochemical
Details: concentration inhibiting [14C]-labeled triacyl glycerol (TG) production by 50%; 2 μg DGAT2-membrane protein from Sf-21 cells, 37° C.
Method in brief: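 Membranes from Sf-21 cells expressing human DGAT2 (2 μg) preincubated 20 min at 37 °C with compound (3 nM–10 μM, 1% DMSO) in HEPES/MgCl2/BSA with 50 μM 1,2-dioleoyl glycerol, then 1 μM [14C]oleoyl-CoA for 15 min. [14C]-TG measured by SPA FlashPlate; inhibition as % of untreated control.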

Compound | IC50
CCOc1ccccc1O[C@@H]1CCCN(c2cncc(NC(=O)[C@@H]3CCCN(c4cccc(CC(C)(C)C(=O)O)c4)C3)n2)C1 [Example 85, 3-(3-((R)-3-((6-((R)-3-(2-ethoxyphenoxy)piperidin-1-yl)pyrazin-2-yl)carbamoyl)piperidin-1-yl)phenyl)-2,2-dimethylpropanoic acid] | 42 nM
CCOc1ccccc1O[C@@H]1CCCN(c2cncc(NC(=O)C(C)(C)c3ccc(N4CCC(C(=O)O)CC4)cc3)n2)C1 [Example 86, (R)-1-(4-(1-((6-(3-(2-ethoxyphenoxy)piperidin-1-yl)pyrazin-2-yl)amino)-2-methyl-1-oxopropan-2-yl)phenyl)piperidine-4-carboxylic acid] | > 10000 nM
CCOc1ccccc1O[C@@H]1CCCN(c2cncc(NC(=O)C3CCN(c4ccc(C(=O)O)cn4)C3)n2)C1 (stereo partly drawn) [Example 87, 6-(3-((6-((R)-3-(2-ethoxyphenoxy)piperidin-1-yl)pyrazin-2-yl)carbamoyl)pyrrolidin-1-yl)nicotinic acid] | 160 nM
CCOc1ccccc1O[C@@H]1CCCN(c2cncc(NC(=O)C3(C)CCNC3)n2)C1 (stereo partly drawn) [Example 88, N-(6-((R)-3-(2-ethoxyphenoxy)piperidin-1-yl)pyrazin-2-yl)-3-methylpyrrolidine-3-carboxamide] | 6200 nM
CCOc1ccccc1O[C@@H]1CCCN(c2cncc(NC(=O)C3(C)CCN(c4ccc(C(=O)O)cn4)C3)n2)C1 (stereo partly drawn) [Example 89, 6-(3-((6-((R)-3-(2-ethoxyphenoxy)piperidin-1-yl)pyrazin-2-yl)carbamoyl)-3-methylpyrrolidin-1-yl)nicotinic acid] | 590 nM
CC(C)Oc1ccccc1O[C@@H]1CCCN(c2cncc(NC(=O)Cc3ccc(CC(=O)O)cc3)n2)C1 [Example 90, (R)-2-(4-(2-((6-(3-(2-isopropoxyphenoxy)piperidin-1-yl)pyrazin-2-yl)amino)-2-oxoethyl)phenyl)acetic acid] | > 10000 nM
COc1ccccc1O[C@@H]1CCCN(c2cncc(NC(=O)CCc3ccc(C(C)(C)C(=O)O)cc3)n2)C1 [Example 91, (R)-2-(4-(3-((6-(3-(2-methoxyphenoxy)piperidin-1-yl)pyrazin-2-yl)amino)-3-oxopropyl)phenyl)-2-methylpropanoic acid] | 370 nM
CC(C)(C(=O)O)c1ccc(CCC(=O)Nc2cncc(N3CCC[C@@H](Oc4ccccc4OCCF)C3)n2)cc1 [Example 93, (R)-2-(4-(3-((6-(3-(2-(2-fluoroethoxy)phenoxy)piperidin-1-yl)pyrazin-2-yl)amino)-3-oxopropyl)phenyl)-2-methylpropanoic acid] | 190 nM
CC(C)(Cc1ccc(CC(=O)Nc2cncc(N3CCC[C@@H](Oc4ccccc4OCCF)C3)n2)cc1)C(=O)O [Example 94, (R)-3-(4-(2-((6-(3-(2-(2-fluoroethoxy)phenoxy)piperidin-1-yl)pyrazin-2-yl)amino)-2-oxoethyl)phenyl)-2,2-dimethylpropanoic acid] | 110 nM
CC(C)(Cc1ccc(CC(=O)Nc2cncc(N3CCC[C@@H](Oc4ccccc4OC4CC4)C3)n2)cc1)C(=O)O [Example 95, (R)-3-(4-(2-((6-(3-(2-cyclopropoxyphenoxy)piperidin-1-yl)pyrazin-2-yl)amino)-2-oxoethyl)phenyl)-2,2-dimethylpropanoic acid] | 150 nM
CC(C)(Cc1ccc(CC(=O)Nc2cncc(N3CCC[C@@H](Oc4ccccc4OC4CCC4)C3)n2)cc1)C(=O)O [Example 96, (R)-3-(4-(2-((6-(3-(2-cyclobutoxyphenoxy)piperidin-1-yl)pyrazin-2-yl)amino)-2-oxoethyl)phenyl)-2,2-dimethylpropanoic acid] | 200 nM
CC(C)(C(=O)O)c1ccc(CCC(=O)Nc2cncc(N3CCC[C@@H](Oc4ccccc4OC4CCC4)C3)n2)cc1 [Example 98, (R)-2-(4-(3-((6-(3-(2-cyclobutoxyphenoxy)piperidin-1-yl)pyrazin-2-yl)amino)-3-oxopropyl)phenyl)-2-methylpropanoic acid] | 81 nM
CCOc1ccccc1O[C@@H]1CCCN(c2cncc(NC(=O)Cc3ccc(OCC(=O)O)cc3)n2)C1 [Example 99] | 2900 nM
CCOc1ccccc1O[C@@H]1CCCN(c2cncc(NC(=O)COc3ccc(CC(=O)O)cc3)n2)C1 [Example 100, (R)-2-(4-(2-((6-(3-(2-ethoxyphenoxy)piperidin-1-yl)pyrazin-2-yl)amino)-2-oxoethoxy)phenyl)acetic acid] | 590 nM
CCOc1ccccc1O[C@@H]1CCCN(c2cncc(NC(=O)COc3ccc(C(C)C(=O)O)cc3)n2)C1 (stereo partly drawn) [Example 101, 2-(4-(2-((6-((R)-3-(2-ethoxyphenoxy)piperidin-1-yl)pyrazin-2-yl)amino)-2-oxoethoxy)phenyl)propanoic acid] | 320 nM
CCOc1ccccc1O[C@@H]1CCCN(c2cncc(NC(=O)Cc3ccc(OCC(C)(C)C(=O)O)cc3)n2)C1 [Example 102] | 450 nM
CCOc1ccccc1O[C@@H]1CCCN(c2cncc(NC(=O)Cc3ccc(O[C@H](C)C(=O)O)cc3)n2)C1 [Example 103, (R)-2-(4-(2-((6-((R)-3-(2-ethoxyphenoxy)piperidin-1-yl)pyrazin-2-yl)amino)-2-oxoethyl)phenoxy)propanoic acid] | 620 nM
CCOc1ccccc1O[C@@H]1CCCN(c2cncc(NC(=O)Cc3ccc(O[C@@H](C)C(=O)O)cc3)n2)C1 [Example 104, (S)-2-(4-(2-((6-((R)-3-(2-ethoxyphenoxy)piperidin-1-yl)pyrazin-2-yl)amino)-2-oxoethyl)phenoxy)propanoic acid] | 660 nM
CCOc1cccnc1O[C@@H]1CCCN(c2cncc(NC(=O)Cc3ccc(OC(C)(C)C(=O)O)cc3)n2)C1 [Example 105, (R)-2-(4-(2-((6-(3-((3-ethoxypyridin-2-yl)oxy)piperidin-1-yl)pyrazin-2-yl)amino)-2-oxoethyl)phenoxy)-2-methylpropanoic acid] | 90 nM
CCOc1ccccc1O[C@@H]1CCCN(c2nccc(NC(=O)Cc3ccc(OC(C)(C)C(=O)O)cc3)n2)C1 [Example 106, (R)-2-(4-(2-((2-(3-(2-ethoxyphenoxy)piperidin-1-yl)pyrimidin-4-yl)amino)-2-oxoethyl)phenoxy)-2-methylpropanoic acid] | 730 nM
CCOc1ccccc1O[C@@H]1CCCN(c2cncc(NC(=O)Cc3ccc(OCc4ccc(C(C)(C)C(=O)O)cc4)cc3)n2)C1 [Example 107, (R)-2-(4-((4-(2-((6-(3-(2-ethoxyphenoxy)piperidin-1-yl)pyrazin-2-yl)amino)-2-oxoethyl)phenoxy)methyl)phenyl)-2-methylpropanoic acid] | 70 nM
CCOc1cccnc1O[C@@H]1CCCN(c2cncc(NC(=O)CCc3ccc(OC(C)(C)C(=O)O)cc3)n2)C1 [Example 108, (R)-2-(4-(3-((6-(3-((3-ethoxypyridin-2-yl)oxy)piperidin-1-yl)pyrazin-2-yl)amino)-3-oxopropyl)phenoxy)-2-methylpropanoic acid] | 78 nM
CCOc1ccccc1O[C@@H]1CCCN(c2nccc(NC(=O)CCc3ccc(OC(C)(C)C(=O)O)cc3)n2)C1 [Example 109, (R)-2-(4-(3-((2-(3-(2-ethoxyphenoxy)piperidin-1-yl)pyrimidin-4-yl)amino)-3-oxopropyl)phenoxy)-2-methylpropanoic acid] | 1100 nM
CCOc1ccccc1O[C@@H]1CCCN(c2cncc(NC(=O)C(C)(C)c3ccc(CC(C)(C)C(=O)O)cc3)n2)C1 [Example 110, (R)-3-(4-(1-((6-(3-(2-ethoxyphenoxy)piperidin-1-yl)pyrazin-2-yl)amino)-2-methyl-1-oxopropan-2-yl)phenyl)-2,2-dimethylpropanoic acid] | 76 nM
CCOc1ccccc1O[C@@H]1CCCN(c2cncc(NC(=O)C(C)(C)Cc3ccc(C(C)(C)C(=O)O)cc3)n2)C1 [Example 111, (R)-2-(4-(3-((6-(3-(2-ethoxyphenoxy)piperidin-1-yl)pyrazin-2-yl)amino)-2,2-dimethyl-3-oxopropyl)phenyl)-2-methylpropanoic acid] | 690 nM
CCOc1ccccc1O[C@@H]1CCCN(c2nccc(NC(=O)Cc3ccc(CC(C)(C)C(=O)O)cc3)n2)C1 [Example 112, (R)-3-(4-(2-((2-(3-(2-ethoxyphenoxy)piperidin-1-yl)pyrimidin-4-yl)amino)-2-oxoethyl)phenyl)-2,2-dimethylpropanoic acid] | 60 nM
CCOc1ccccc1O[C@@H]1CCCN(c2ccnc(NC(=O)Cc3ccc(CC(C)(C)C(=O)O)cc3)n2)C1 [Example 113, (R)-3-(4-(2-((4-(3-(2-ethoxyphenoxy)piperidin-1-yl)pyrimidin-2-yl)amino)-2-oxoethyl)phenyl)-2,2-dimethylpropanoic acid] | 150 nM
CCOc1cccnc1O[C@@H]1CCCN(c2ccnc(NC(=O)Cc3ccc(CC(C)(C)C(=O)O)cc3)n2)C1 [Example 114, (R)-3-(4-(2-((4-(3-((3-ethoxypyridin-2-yl)oxy)piperidin-1-yl)pyrimidin-2-yl)amino)-2-oxoethyl)phenyl)-2,2-dimethylpropanoic acid] | 140 nM
CCOc1cccnc1O[C@@H]1CCCN(c2nccc(NC(=O)Cc3ccc(CC(C)(C)C(=O)O)cc3)n2)C1 [Example 115, (R)-3-(4-(2-((2-(3-((3-ethoxypyridin-2-yl)oxy)piperidin-1-yl)pyrimidin-4-yl)amino)-2-oxoethyl)phenyl)-2,2-dimethylpropanoic acid] | 140 nM
